According to PubChem BioAssay AID1259407 (Chemical Carcinogenesis Research Information System (CCRIS), 2018):
Activity calls are given as the source filed them. The rule behind the calls is not given here.

Test system: CCRIS mutagenicity, Ames/micronucleus/aberration tests
Assay: CCRIS mutagenicity studies
[1] = Test System: AMES SALMONELLA TYPHIMURIUM, Strain/Indicator: TA98, Metabolic Activation: RAT, LIVER, S-9, AROCLOR 1254, Method: STANDARD PLATE
[2] = Test System: AMES SALMONELLA TYPHIMURIUM, Strain/Indicator: TA100, Metabolic Activation: NONE, Method: PREINCUBATION
[3] = Test System: AMES SALMONELLA TYPHIMURIUM, Strain/Indicator: TA98, Metabolic Activation: NONE, Method: PREINCUBATION

`c1ccc2c(c1)ccc1cc3c(ccc4ccccc43)cc12` was tested, and the mutagenic call (Test System: AMES SALMONELLA TYPHIMURIUM, Strain/Indicator: TA98, Metabolic Activation: HAMSTER, LIVER, S-9, AROCLOR 1254 (5 OR 30%), Method: PREINCUBATION) was “inactive; negative”, the mutagenic call (Test System: AMES SALMONELLA TYPHIMURIUM, Strain/Indicator: TA98, Metabolic Activation: HAMSTER, LIVER, S-9, AROCLOR 1254 (10%), Method: PREINCUBATION) was “active; positive” and the mutagenic call (Test System: AMES SALMONELLA TYPHIMURIUM, Strain/Indicator: TA98, Metabolic Activation: RAT, LIVER, S-9, AROCLOR 1254 (30%), Method: PREINCUBATION) was “active; positive”. For the same compound, the mutagenic call [1] was “active; positive”, the mutagenic call (Test System: AMES SALMONELLA TYPHIMURIUM, Strain/Indicator: TA100, Metabolic Activation: HAMSTER, LIVER, S-9, AROCLOR 1254 (5, 10 OR 30%), Method: PREINCUBATION) was “active; positive” and the mutagenic call (Test System: AMES SALMONELLA TYPHIMURIUM, Strain/Indicator: TA100, Metabolic Activation: MOUSE, LIVER, S-9, 3-METHYLCHOLANTHRENE, Method: STANDARD PLATE) was “active; positive”. For the same compound, the mutagenic call (Test System: AMES SALMONELLA TYPHIMURIUM, Strain/Indicator: TA100, Metabolic Activation: MOUSE, LIVER, S-10, AROCLOR 1254) was “active; positive”, the mutagenic call [2] was “inactive; negative” and the mutagenic call (Test System: AMES SALMONELLA TYPHIMURIUM, Strain/Indicator: TA100, Metabolic Activation: RAT, LIVER, S-9, AROCLOR 1254 (30%), Method: PREINCUBATION) was “active; positive”. The mutagenic call (Test System: AMES SALMONELLA TYPHIMURIUM, Strain/Indicator: TA100, Metabolic Activation: RAT, LIVER, S-9, AROCLOR 1254, Method: STANDARD PLATE) was “active; positive”, the mutagenic call (Test System: AMES SALMONELLA TYPHIMURIUM, Strain/Indicator: TA1537, Metabolic Activation: RAT, LIVER, S-9, AROCLOR 1254, Method: STANDARD PLATE) was “active; positive” and the mutagenic call (Test System: CHINESE HAMSTER V-79, Strain/Indicator: V-79/6-THIOGUANINE, Metabolic Activation: RAT, LIVER, S-9, PHENOBARBITAL, Method: STANDARD PLATE) was “active; positive”. The mutagenic call (Test System: CHINESE HAMSTER V-79, Strain/Indicator: V-79/OUABAIN, Metabolic Activation: CELL-MEDIATED, Method: STANDARD PLATE) was “active; positive”.
In the case of `CC(=O)N(O)c1ccc2c(ccc3ccccc32)c1`, the mutagenic call (Test System: UDS HUMAN FIBROBLASTS, Strain/Indicator: THY INCORP (NON-S-PHASE), Metabolic Activation: NONE, Method: AUTORADIOGRAPHY) is reported as “active; positive”.
In the case of `C[C@H](CN=[N+]=[N-])c1ccccc1`, the mutagenic call [2] is reported as “inactive; negative” and the mutagenic call (Test System: AMES SALMONELLA TYPHIMURIUM, Strain/Indicator: TA100, Metabolic Activation: RAT, LIVER, S-9, PCB, Method: PREINCUBATION) is reported as “active; positive”.
In the case of `CC(=O)N(O)c1ccc2ccc3cccc4ccc1c2c34`, the mutagenic call (Test System: AMES SALMONELLA TYPHIMURIUM, Strain/Indicator: TA98(1,8-DNP6), Metabolic Activation: NONE, Method: STANDARD PLATE) is reported as “active; positive”, the mutagenic call (Test System: AMES SALMONELLA TYPHIMURIUM, Strain/Indicator: TA98(1,8-DNP6), Metabolic Activation: RAT, LIVER, S-9, AROCLOR 1254, Method: STANDARD PLATE) is reported as “active; positive” and the mutagenic call (Test System: AMES SALMONELLA TYPHIMURIUM, Strain/Indicator: TA98(NR), Metabolic Activation: NONE, Method: STANDARD PLATE) is reported as “active; positive”. For the same compound, the mutagenic call (Test System: AMES SALMONELLA TYPHIMURIUM, Strain/Indicator: TA98(NR), Metabolic Activation: RAT, LIVER, S-9, AROCLOR 1254, Method: STANDARD PLATE) was “active; positive”, the mutagenic call (Test System: AMES SALMONELLA TYPHIMURIUM, Strain/Indicator: TA98, Metabolic Activation: NONE, Method: STANDARD PLATE) was “active; positive” and the mutagenic call [1] was “active; positive”.
For `Nc1cc([N+](=O)[O-])ccc1C(=O)O`, the mutagenic call [3] was “active; positive”, the mutagenic call (Test System: AMES SALMONELLA TYPHIMURIUM, Strain/Indicator: TA98, Metabolic Activation: RAT, LIVER, S-9, AROCLOR, Method: PREINCUBATION) was “active; positive” and the mutagenic call (Test System: CHINESE HAMSTER OVARY, Strain/Indicator: CHO-K1-BH4 (HGPRT)/6-THIOGUANINE, Metabolic Activation: NONE) was “inactive; negative”. For the same compound, the mutagenic call (Test System: CHINESE HAMSTER OVARY, Strain/Indicator: CHO-K1-BH4 (HGPRT)/6-THIOGUANINE, Metabolic Activation: S-9) was “inactive; negative”.
In the case of `CNC(=O)NC`, the mutagenic call [3] is reported as “inactive; negative”, the mutagenic call (Test System: AMES SALMONELLA TYPHIMURIUM, Strain/Indicator: TA98, Metabolic Activation: RAT, LIVER, S-9, AROCLOR 1254 (5, 15 OR 30%), Method: PREINCUBATION) is reported as “inactive; negative” and the mutagenic call [2] is reported as “inactive; negative”. The mutagenic call (Test System: AMES SALMONELLA TYPHIMURIUM, Strain/Indicator: TA100, Metabolic Activation: RAT, LIVER, S-9, AROCLOR 1254 (5, 15 OR 30%), Method: PREINCUBATION) was “inactive; negative”, the mutagenic call (Test System: AMES SALMONELLA TYPHIMURIUM, Strain/Indicator: TA104, Metabolic Activation: NONE, Method: PREINCUBATION) was “inactive; negative” and the mutagenic call (Test System: AMES SALMONELLA TYPHIMURIUM, Strain/Indicator: TA104, Metabolic Activation: RAT, LIVER, S-9, AROCLOR 1254 (5, 15 OR 30%), Method: PREINCUBATION) was “inactive; negative”. For the same compound, the mutagenic call (Test System: MOUSE LYMPHOMA, Strain/Indicator: L5178Y (TK+/TK-), Metabolic Activation: NONE, Method: SUSPENSION/PLATE) was “inactive; negative” and the mutagenic call (Test System: MOUSE LYMPHOMA, Strain/Indicator: L5178Y (TK+/TK-), Metabolic Activation: RAT, LIVER, S-9, AROCLOR 1254, Method: SUSPENSION/PLATE) was “inactive; negative”.
